Eleven compounds from patent publication US8658604B2, “Template-fixed beta-hairpin peptidomimetics with protease inhibitory activity” (Polyphor Ltd, priority 2005, dated 2014) can be followed below.

This assay deals with T1, Elastase from human neutrophils (Homo sapiens, UniProt P08246).
T1 sequence (P08246 30-267): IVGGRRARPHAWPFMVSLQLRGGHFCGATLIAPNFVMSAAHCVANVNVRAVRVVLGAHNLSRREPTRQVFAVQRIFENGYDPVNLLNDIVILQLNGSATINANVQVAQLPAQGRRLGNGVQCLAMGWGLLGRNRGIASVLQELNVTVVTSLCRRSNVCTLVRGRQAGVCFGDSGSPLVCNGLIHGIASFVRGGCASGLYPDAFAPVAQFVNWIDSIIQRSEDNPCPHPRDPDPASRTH
As to the kind of experiment: Enzymatic assay, elastase. The note with it: Elastase IC50.

One may read the IC50 as the concentration needed to halve the response being measured. Read a low IC50 as greater potency.

The structures appear in SMILES notation. Where a SMILES comes first, the peptide text is derived from it.

`CCCCCCCC[C@@H]1NC(=O)[C@H](CO)NC(=O)[C@H](C)NC(=O)[C@H]([C@@H](C)O)NC(=O)[C@H]([C@@H](C)O)NC(=O)[C@H](CCCC)NC(=O)[C@@H]2CCCN2C(=O)[C@H]2CCCN2C(=O)[C@H](Cc2ccc(O)cc2)NC(=O)[C@H](CCC(N)=O)NC(=O)[C@H](CCC(N)=O)NC(=O)[C@@H]2CCCN2C(=O)[C@@H]2CCCN2C1=O` [Ex. 135] (HELM PEPTIDE1{[Nle].T.T.A.S.[CCCCCCCC[C@H](N[*:1])C(=O)[*:2]].P.P.Q.Q.Y.[dP].P}$PEPTIDE1,PEPTIDE1,1:R1-13:R2$$$V2.0) showed an IC50 of 23 nM. In the case of `CCCC[C@@H]1NC(=O)[C@@H]2CCCN2C(=O)[C@H]2CCCN2C(=O)[C@H](Cc2ccc(O)cc2)NC(=O)[C@H](CCC(N)=O)NC(=O)[C@H](CCC(N)=O)NC(=O)[C@@H]2CCCN2C(=O)[C@@H]2CCCN2C(=O)[C@H](CC2CCCCC2)NC(=O)[C@H](CO)NC(=O)[C@H](C)NC(=O)[C@H]([C@@H](C)O)NC(=O)[C@H]([C@@H](C)O)NC1=O` [Ex. 139] (HELM PEPTIDE1{[Nle].T.T.A.S.[Cha].P.P.Q.Q.Y.[dP].P}$PEPTIDE1,PEPTIDE1,1:R1-13:R2$$$V2.0) it was 18 nM; in that of `CC[C@H](C)[C@@H]1NC(=O)[C@H](CO)NC(=O)[C@H](C)NC(=O)[C@H]([C@@H](C)O)NC(=O)[C@H](CCC(N)=O)NC(=O)[C@H](CCc2ccccc2)NC(=O)[C@@H]2CCCN2C(=O)[C@H]2CCCN2C(=O)[C@H](Cc2ccc(O)cc2)NC(=O)[C@H]([C@@H](C)O)NC(=O)[C@H](CCC(N)=O)NC(=O)[C@@H]2CCCN2C(=O)[C@@H]2CCCN2C1=O` [Ex. 142] (HELM PEPTIDE1{[O=C([C@H](CCc1ccccc1)N[*:1])[*:2]].Q.T.A.S.I.P.P.Q.T.Y.[dP].P}$PEPTIDE1,PEPTIDE1,1:R1-13:R2$$$V2.0), 16 nM; in that of `CCCCCCCC[C@@H]1NC(=O)[C@@H]2CCCN2C(=O)[C@H]2CCCN2C(=O)[C@H](Cc2ccccc2)NC(=O)[C@@H]2CSSC[C@H](NC1=O)C(=O)N[C@@H]([C@@H](C)O)C(=O)N[C@@H](C)C(=O)N[C@@H](CO)C(=O)N[C@@H]([C@@H](C)CC)C(=O)N1CCC[C@H]1C(=O)N1CCC[C@H]1C(=O)N[C@@H](CCC(N)=O)C(=O)N2` [Ex. 145] (HELM PEPTIDE1{[CCCCCCCC[C@H](N[*:1])C(=O)[*:2]].C.T.A.S.I.P.P.Q.C.F.[dP].P}$PEPTIDE1,PEPTIDE1,2:R3-10:R3|PEPTIDE1,PEPTIDE1,1:R1-13:R2$$$V2.0), 14 nM. In turn, `CCCCCCCC[C@@H]1NC(=O)[C@@H]2CCCN2C(=O)[C@H]2CCCN2C(=O)[C@H](Cc2ccc(O)cc2)NC(=O)[C@H](CCC(N)=O)NC(=O)[C@H](CCC(N)=O)NC(=O)[C@@H]2CCCN2C(=O)[C@@H]2CCCN2C(=O)[C@H]([C@@H](C)CC)NC(=O)[C@H](CO)NC(=O)[C@H](C)NC(=O)[C@H]([C@@H](C)O)NC(=O)[C@H]([C@@H](C)O)NC1=O` [Ex. 147] (HELM PEPTIDE1{[CCCCCCCC[C@H](N[*:1])C(=O)[*:2]].T.T.A.S.I.P.P.Q.Q.Y.[dP].P}$PEPTIDE1,PEPTIDE1,1:R1-13:R2$$$V2.0) came in with a 50% inhibitory concentration (IC50) of 11 nM. In the case of `CCCCCCCC[C@@H]1NC(=O)[C@@H]2CCCN2C(=O)[C@H]2CCCN2C(=O)[C@H](CCC(N)=O)NC(=O)[C@@H]2CSSC[C@H](NC1=O)C(=O)N[C@@H]([C@@H](C)O)C(=O)N[C@@H](C)C(=O)N[C@@H](CO)C(=O)N[C@@H]([C@@H](C)CC)C(=O)N1CCC[C@H]1C(=O)N1CCC[C@H]1C(=O)N[C@@H](CCC(N)=O)C(=O)N2` [Ex. 149] (HELM PEPTIDE1{[CCCCCCCC[C@H](N[*:1])C(=O)[*:2]].C.T.A.S.I.P.P.Q.C.Q.[dP].P}$PEPTIDE1,PEPTIDE1,2:R3-10:R3|PEPTIDE1,PEPTIDE1,1:R1-13:R2$$$V2.0) it was 11 nM; in that of `CCCCCCCC[C@@H]1NC(=O)[C@@H]2CCCN2C(=O)[C@H]2CCCN2C(=O)[C@H](Cc2ccc(O)cc2)NC(=O)[C@@H]2CSSC[C@H](NC1=O)C(=O)N[C@@H]([C@@H](C)O)C(=O)N[C@@H](C)C(=O)N[C@@H](CO)C(=O)N[C@@H](CC1CCCCC1)C(=O)N1CCC[C@H]1C(=O)N1CCC[C@H]1C(=O)N[C@@H](CCC(N)=O)C(=O)N2` [Ex. 150] (HELM PEPTIDE1{[CCCCCCCC[C@H](N[*:1])C(=O)[*:2]].C.T.A.S.[Cha].P.P.Q.C.Y.[dP].P}$PEPTIDE1,PEPTIDE1,2:R3-10:R3|PEPTIDE1,PEPTIDE1,1:R1-13:R2$$$V2.0), 10 nM; in that of `CCCCCCCC[C@@H]1NC(=O)[C@H](CO)NC(=O)[C@H](C)NC(=O)[C@H]([C@@H](C)O)NC(=O)[C@@H]2CSSC[C@H](NC(=O)[C@H](CCC(N)=O)NC(=O)[C@@H]3CCCN3C(=O)[C@@H]3CCCN3C1=O)C(=O)N[C@@H](Cc1ccccc1)C(=O)N1CCC[C@@H]1C(=O)N1CCC[C@H]1C(=O)N[C@@H](CCc1ccccc1)C(=O)N2` [Ex. 152] (HELM PEPTIDE1{[O=C([C@H](CCc1ccccc1)N[*:1])[*:2]].C.T.A.S.[CCCCCCCC[C@H](N[*:1])C(=O)[*:2]].P.P.Q.C.F.[dP].P}$PEPTIDE1,PEPTIDE1,2:R3-10:R3|PEPTIDE1,PEPTIDE1,1:R1-13:R2$$$V2.0), 9 nM. As to `CCCCCCCC[C@@H]1NC(=O)[C@@H]2CCCN2C(=O)[C@H]2CCCN2C(=O)[C@H](Cc2ccccc2)NC(=O)[C@@H]2CSSC[C@H](NC1=O)C(=O)N[C@@H]([C@@H](C)O)C(=O)N[C@@H](C)C(=O)N[C@@H](CO)C(=O)N[C@@H](CC1CCCCC1)C(=O)N1CCC[C@H]1C(=O)N1CCC[C@H]1C(=O)N[C@@H](CCC(N)=O)C(=O)N2` [Ex. 157] (HELM PEPTIDE1{[CCCCCCCC[C@H](N[*:1])C(=O)[*:2]].C.T.A.S.[Cha].P.P.Q.C.F.[dP].P}$PEPTIDE1,PEPTIDE1,2:R3-10:R3|PEPTIDE1,PEPTIDE1,1:R1-13:R2$$$V2.0), the midpoint of inhibition, the IC50, lay at 7 nM. For `CCCCCCCC[C@@H]1NC(=O)[C@@H]2CCCN2C(=O)[C@H]2CCCN2C(=O)[C@H](CCC(N)=O)NC(=O)[C@@H]2CSSC[C@H](NC1=O)C(=O)N[C@@H]([C@@H](C)O)C(=O)N[C@@H](C)C(=O)N[C@@H](CO)C(=O)N[C@@H](CC1CCCCC1)C(=O)N1CCC[C@H]1C(=O)N1CCC[C@H]1C(=O)N[C@@H](CCC(N)=O)C(=O)N2` [Ex. 159] (HELM PEPTIDE1{[CCCCCCCC[C@H](N[*:1])C(=O)[*:2]].C.T.A.S.[Cha].P.P.Q.C.Q.[dP].P}$PEPTIDE1,PEPTIDE1,2:R3-10:R3|PEPTIDE1,PEPTIDE1,1:R1-13:R2$$$V2.0) the value was 7 nM; for `CCCCCCCC[C@@H]1NC(=O)[C@H](CO)NC(=O)[C@H](C)NC(=O)[C@H]([C@@H](C)O)NC(=O)[C@@H]2CSSC[C@H](NC(=O)[C@H](CCC(N)=O)NC(=O)[C@@H]3CCCN3C(=O)[C@@H]3CCCN3C1=O)C(=O)N[C@@H](Cc1ccc(O)cc1)C(=O)N1CCC[C@@H]1C(=O)N1CCC[C@H]1C(=O)N[C@@H](CCc1ccccc1)C(=O)N2` [Ex. 161] (HELM PEPTIDE1{[O=C([C@H](CCc1ccccc1)N[*:1])[*:2]].C.T.A.S.[CCCCCCCC[C@H](N[*:1])C(=O)[*:2]].P.P.Q.C.Y.[dP].P}$PEPTIDE1,PEPTIDE1,2:R3-10:R3|PEPTIDE1,PEPTIDE1,1:R1-13:R2$$$V2.0), 6 nM.
